Reference: US20050032882A1, “Botanical extract compositions and methods of use” (priority 2002, published 2005)
In brackets after ≈: the same amount, converted by molar mass.

How the values were obtained:
[1] = system: LNCaP cells; assay: LNCaP cell cycle by DNA content flow cytometry; type: cell-based; settings: LNCaP cells exposed 24-48 hours, DAPI DNA content flow cytometry
Protocol: The cells were washed with phosphate buffered saline (PBS) and fixed in ice-cold 70% ethanol. […] ([…]. Juan, […]. Chen, F. Traganos and Z. Darzynkiewicz, “Apoptosis and Cell Cycle Effects Induced by Extracts of the Chinese Herbal Preparation of PC SPES”, International J. of Oncology (1997), 11: 437-448). The cellular DNA content was measured with an ELITE ESP flow cytometer (Coulter Inc., Fl.) using UV laser illumination. The multicycle program was used to deconvolute the DNA frequency histograms to estimate the frequency of cells in different phases of the cell cycle. […] Similar measurements were conducted for isoliquiritigenin.

[2] = system: DU-145 cells; assay: DU-145 cell cycle by DNA content flow cytometry; type: cell-based; settings: protocol of Example 3
Protocol: The cells were washed with phosphate buffered saline (PBS) and fixed in ice-cold 70% ethanol. […] ([…]. Juan, […]. Chen, F. Traganos and Z. Darzynkiewicz, “Apoptosis and Cell Cycle Effects Induced by Extracts of the Chinese Herbal Preparation of PC SPES”, International J. of Oncology (1997), 11: 437-448). The cellular DNA content was measured with an ELITE ESP flow cytometer (Coulter Inc., Fl.) using UV laser illumination. The multicycle program was used to deconvolute the DNA frequency histograms to estimate the frequency of cells in different phases of the cell cycle.

[3] = system: LNCaP (androgen-dependent) prostate cancer cells; assay: MTT cell viability assay, LNCaP prostate cancer cells; type: cell-based; settings: concentration giving 50% inhibition of cancer cell growth, 72 hours, linear interpolation
From the text: (§1) Cancer cell lines: LNCaP, DU-145, and MCF-7 cells were purchased from the American Type Culture Collection. […] Cells were maintained in RPMI 1640 culture media supplemented with 10% heat-inactivated FBS, 5 millimolar glutamine, 50 units/milliliter of penicillin G, and 50 […] of streptomycin. The cells were routinely seeded at 1×10^5 cells/milliliter in T-75 flasks, allowed to attach overnight, then treated with the herbal extract. At different times, cells were harvested by trypsinization. […] The assay reagents were purchased from Boehringer Mannheim (Roche Diagnosis Corp, Indianapolis, Ind.). […] The protocol for the cell viability assay was provided by the manufacturer and modified in our laboratory as described below. […] After 24 hours, 20 microliter aliquots of the compounds at various concentrations were added to the attached cells. […] The plates were incubated at 37° C. in a CO2 incubator for 72 hours. At the end of day 3 (after 72 hours), the culture medium was carefully removed without disturbing the cells and replaced by 100 microliters of fresh cell medium.

[4] = system: DU-145 (androgen-independent) prostate cancer cells; assay: MTT cell viability assay, DU-145 prostate cancer cells; type: cell-based; settings: concentration giving 50% inhibition of cancer cell growth, 72 hours, linear interpolation
From the text: as §1

[5] = system: MCF-7 breast cancer cells; assay: MTT cell viability assay, MCF-7 breast cancer cells; type: cell-based; settings: concentration giving 50% inhibition of cancer cell growth, 72 hours, linear interpolation
From the text: Cancer cell lines: LNCaP, DU-145, and MCF-7 cells were purchased from the American Type Culture Collection. […] Cells were maintained in RPMI 1640 culture media supplemented with 10% heat-inactivated FBS, 5 millimolar glutamine, 50 units/milliliter of penicillin G, and 50 […] of streptomycin. The cells were routinely seeded at 1×10^5 cells/milliliter in T-75 flasks, allowed to attach overnight, then treated with the herbal extract. At different times, cells were harvested by trypsinization. […] The assay reagents were purchased from Boehringer Mannheim (Roche Diagnosis Corp, Indianapolis, Ind.). […] The protocol for the cell viability assay was provided by the manufacturer and modified in our laboratory as described below. CSO-0001-P […] After 24 hours, 20 microliter aliquots of the compounds at various concentrations were added to the attached cells. […] The plates were incubated at 37° C. in a CO2 incubator for 72 hours. […] The plate was allowed to stand overnight in the CO2 incubator and read by an ELISA Reader (EL800, Bio-Tek Instruments, Inc.) at a wavelength of 570 nm. The percent cell viability was calculated according to the equation below: [formula] where V is the percent cell viability, Acontrol is the absorption of the control cells, and Atreated is the absorption of the treated cells. […]

[6] = biological target: T1, COX-2 (Ovis aries, UniProt P79208); assay: ovine COX-2 Inhibitor Screening Assay (Cayman, prostaglandin immunoassay); type: biochemical; settings: ovine COX-2, arachidonic acid substrate; read-out: IC50 COX-2 inhibition
T1 construct: purchased Cayman Chemical 760101
T1 sequence (P79208 17-603): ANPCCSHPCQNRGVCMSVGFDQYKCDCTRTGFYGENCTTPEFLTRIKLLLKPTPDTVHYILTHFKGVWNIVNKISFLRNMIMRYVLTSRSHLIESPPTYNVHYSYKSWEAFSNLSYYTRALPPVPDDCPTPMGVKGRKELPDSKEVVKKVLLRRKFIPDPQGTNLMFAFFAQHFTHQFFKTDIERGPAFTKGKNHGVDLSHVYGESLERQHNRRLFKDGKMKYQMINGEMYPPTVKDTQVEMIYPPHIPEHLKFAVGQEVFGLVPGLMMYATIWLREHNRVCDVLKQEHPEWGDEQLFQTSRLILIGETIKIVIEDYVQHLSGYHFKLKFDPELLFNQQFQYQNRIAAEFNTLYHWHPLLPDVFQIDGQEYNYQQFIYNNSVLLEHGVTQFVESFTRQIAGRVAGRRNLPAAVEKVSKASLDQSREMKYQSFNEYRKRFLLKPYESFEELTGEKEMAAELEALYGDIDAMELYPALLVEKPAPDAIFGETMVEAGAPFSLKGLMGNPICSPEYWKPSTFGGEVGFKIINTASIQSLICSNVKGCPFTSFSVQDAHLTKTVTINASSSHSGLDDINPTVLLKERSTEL
Protocol: This immunoassay uses an antibody to that binds all major prostaglandins to measure quantitatively the amount of PGF2α produced in the COX reaction using arachidonic acid as a substrate. The final volume of the reactions as described below is typically 1.15 ml. In brief, COX-1 or COX-2 (e.g., 20 μl of a solution of from 1 to 100 units/ml COX, where a unit is defined as the amount of enzyme that consumes one nanomole of oxygen per minute at 37° C. in 0.1 M Tris-HCl buffer, pH 8.0 containing 100 μM arachidonate, 5 mM EDTA, 2 mM phenol and 1 μM hematin) is first mixed with a buffer (e.g., 0.1 M Tris, pH 8.0, 5 mM EDTA, 2 mM phenol) and heme (e.g., 10 μl of 10 mM heme) in a microfuge tube. The heme is a cofactor for COX that provides maximal activity in the assay. […] The prostaglandin produced in the reactions is typically quantified using an enzyme immunoassay.
The enzyme immunoassay to detect prostaglandin can conveniently be performed in a 96 well plate using an antibody to detect prostaglandin. As controls, prostaglandin standards and COX 100% activity samples (no inhibitor) can be measured. […] When ready to develop the plate, the reactions are first washed and then incubated with 200 μl of Ellman's reagent for 60 minutes or so. The plate can be read at 405 to 420 nm on a plate reader. […]

[7] = system: PTX 10 (taxol resistant ovarian cancer cell line); assay: MTT cell viability assay, PTX 10 taxol-resistant ovarian cancer cells; type: cell-based; settings: protocol as Example 1
From the text: Cancer cell lines: LNCaP, DU-145, and MCF-7 cells were purchased from the American Type Culture Collection. PTX 10, a taxol-resistant ovarian cancer cell line, was obtained from the Brander Cancer Research Laboratory, New York Medical College. Cells were maintained in RPMI 1640 culture media supplemented with 10% heat-inactivated FBS, 5 millimolar glutamine, 50 units/milliliter of penicillin G, and 50 […] of streptomycin. The cells were routinely seeded at 1×10^5 cells/milliliter in T-75 flasks, allowed to attach overnight, then treated with the herbal extract. At different times, cells were harvested by trypsinization.
The assay reagents were purchased from Boehringer Mannheim (Roche Diagnosis Corp, Indianapolis, Ind.). […] The protocol for the cell viability assay was provided by the manufacturer and modified in our laboratory as described below.
After 24 hours, 20 microliter aliquots of the compounds at various concentrations were added to the attached cells. […] The plates were incubated at 37° C. in a CO2 incubator for 72 hours. At the end of day 3 (after 72 hours), the culture medium was carefully removed without disturbing the cells and replaced by 100 microliters of fresh cell medium.

IC50 [6] [µM] | SMILES | effect on LNCaP cell cycle phases (G1, S, G2M) [1] | effect on DU-145 cell cycle phases [2] | ED50 from MTT assay, LNCaP [3] [µg/mL] | ED50 from MTT assay, DU145 [4] [µg/mL] | ED50 from MTT assay, MCF7 [5] [µg/mL] | ED50 PTX 10 (taxol resistant ovarian cancer cell) [7] [µg/mL]
 | COc1c(O)cc(O)c2c(=O)cc(-c3ccccc3)oc12 [Wogonin, 5,7-dihydroxy-8-methoxy-flavone] | induced a G1 phase arrest | prolonged the G2M phase |  |  |  | 
10.5 | O=C(/C=C/c1ccc(O)cc1)c1ccc(O)cc1O [Isoliquiritigenin, 2′,4,4′-trihydroxychalcone] | induced a G2M phase arrest |  | 3.51 (≈ 13.7 µM) | 7.60 (≈ 29.7 µM) | 3.25 (≈ 12.7 µM) | 3.32 (≈ 13 µM)
